Test system: cortical septin structures in MV3 cells
Assay: Cortical septin localization (SEPT6-GFP) in MV3 cells
Assay type: cell-based, human
Details: MV3 SEPT6-GFP; WGA (50 ug/ml), VitroGel, H1152 (1 μM), NSC668394 (10 μM)
Procedure: Cells Embedded in 3D Collagen.
Cells Grown in VitroGel Coffins. VitroGel coffins were prepared by embedding MV3 or A375 cells in VitroGel 3D or RGD at 1:1 dilution according to manufacturer's instructions (TheWell Biosciences, sku #TWG001). […] A 1:1 solution of VitroGel and VitroGel Dilution Solution was made and added to cell suspension at a ratio of 4:1 (VitroGel: cells) using gentle pipetting until well-mixed (with care taken not to form bubbles). Cell/VitroGel solution was transferred to an 8-well uncoated ibidi μ-slide (ibidi cat #80821) at 100 μl/well, spread over the bottom of wells with a pipette tip, and allowed to polymerize at room temperature for 15 minutes. The remainder of the well was then filled with 10% FBS DMEM and slide was stored at 37° C. and 5% CO2 for either 24 hrs for viability assays, 3 hrs for ERK activity assays, or 1 hour for visualization of septins/PI3K activity.
3D Light-Sheet Imaging. […] All images were saved in the OME-TIFF format.
3D Cell Image Analysis. Cell morphology and septin localization were analyzed principally via u-shape3D similar to the protocol described in Driscoll et al. Nature Methods. 16, 1037-1044 (2019), the disclosure of which is incorporated herein in its entirety. Briefly, 3D images were first deconvolved using either a Richardson-Lucy or Wiener algorithm with an experimentally measured point spread function. […] Cell surfaces were then represented as triangle meshes, and the mean surface curvature at every triangle was calculated according to methods described in Driscoll et al. Nature Methods. […] Septin and NRAS localization was measured from fluorescence images by extending a sphere of either 1 μm (for septins) or 2 μm (for NRAS) about each mesh triangle and mapping to the triangle the average intensity both within that sphere and the cell. Image intensity was not depth normalized prior to analysis, but was instead measured from the raw, undeconvolved image. […]
Cortical septin levels were quantified by measuring the mean cytoplasmic intensity of each cell using hand-drawn ROIs that excluded nuclei (performed with the FIJI ImageJ package), and then calculating for each cell its fraction of cortical voxels (intracellular voxels within 0.96 μm of the u-Shape3D-derived surface) that were higher than that cell's mean cytoplasmic intensity (performed using a MATLAB script). NRAS enrichment at the surface was quantified by first calculating the total amount of intracellular signal expected to be within 0.96 μm of the surface if the cell's signal was homogenously distributed between all voxels, and then calculating the percent change between this value and the observed value for each cell. […]

Cc1cncc2cccc(S(=O)(=O)N3CCCNC[C@@H]3C)c12 [H1152]
septin localization (cortical levels): pronounced effects on septin localization, reducing cortical levels
